Each block holds one compound with its values, some of them ahead of it.
How the values were obtained:
[1] = molecular target: T1, NcCAR (Neurospora crassa, UniProt Q7RW48); test: time-resolved […] NMR of cinnamic acid reduction; relief of inhibition by pyrophosphatase; format: biochemical; settings: co-product inhibition, inferred, ATP, NADPH, MgCl2, Tris-HCl pH 7.5
T1 construct: gene NCU05000; full length, codon-optimized gene, N-terminal TEV-cleavable His-tag (removed for kinetics), pETDUET1, co-expressed with E. coli phosphopantetheinyl transferase (CAQ31055.1) in E. coli BL21 (DE3) Star; 120 kDa
T1 sequence (Q7RW48 whole entry): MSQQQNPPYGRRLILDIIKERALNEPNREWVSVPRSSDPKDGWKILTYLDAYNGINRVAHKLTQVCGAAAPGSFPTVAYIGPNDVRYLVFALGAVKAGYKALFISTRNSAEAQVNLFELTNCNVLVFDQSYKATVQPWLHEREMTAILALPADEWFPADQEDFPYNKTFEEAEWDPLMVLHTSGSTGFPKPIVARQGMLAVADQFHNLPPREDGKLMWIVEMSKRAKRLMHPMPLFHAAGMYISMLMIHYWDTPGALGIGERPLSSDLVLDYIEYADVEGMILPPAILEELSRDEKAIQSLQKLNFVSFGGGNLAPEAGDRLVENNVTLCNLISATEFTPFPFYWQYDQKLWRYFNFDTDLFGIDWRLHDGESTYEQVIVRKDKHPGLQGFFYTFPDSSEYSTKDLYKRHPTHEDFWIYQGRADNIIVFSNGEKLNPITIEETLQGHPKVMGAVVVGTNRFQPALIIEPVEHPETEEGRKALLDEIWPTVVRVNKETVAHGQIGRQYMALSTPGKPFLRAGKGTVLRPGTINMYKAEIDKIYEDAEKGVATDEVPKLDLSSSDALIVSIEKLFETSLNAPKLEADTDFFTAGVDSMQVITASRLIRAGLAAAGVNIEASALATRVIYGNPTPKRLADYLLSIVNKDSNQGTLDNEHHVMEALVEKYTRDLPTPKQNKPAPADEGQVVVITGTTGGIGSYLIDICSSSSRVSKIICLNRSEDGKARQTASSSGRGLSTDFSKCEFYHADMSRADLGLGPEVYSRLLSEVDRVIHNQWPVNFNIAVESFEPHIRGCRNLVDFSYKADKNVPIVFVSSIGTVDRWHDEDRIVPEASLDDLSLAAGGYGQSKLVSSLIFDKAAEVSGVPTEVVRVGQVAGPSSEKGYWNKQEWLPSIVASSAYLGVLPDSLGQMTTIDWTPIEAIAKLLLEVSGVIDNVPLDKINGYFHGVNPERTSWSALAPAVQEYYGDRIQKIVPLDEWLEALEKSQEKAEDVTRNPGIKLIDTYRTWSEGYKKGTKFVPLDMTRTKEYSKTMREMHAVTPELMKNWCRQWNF

[2] = molecular target: T1, NcCAR; test: spectrophotometric NADPH depletion assay, […] nm, initial rates; format: biochemical; settings: apparent, ATP, MgCl2, MES buffer pH 6.0, 28 °C, 5% v/v DMSO
[3] = tested on: O=C(O)c1ccc2c(c1)OCO2; test: purified protein; format: biochemical, Neurospora crassa; settings: apparent, ATP, NADPH, MgCl2, MES buffer pH 6.0, 28 °C, substrate in water with equimolar KOH

Compound: O=P(O)(O)OP(=O)(O)O [pyrophosphate]
time-resolved 31P NMR of cinnamic acid reduction; relief of inhibition by pyroph [1]: these results indicate the inhibition of NcCAR by the co‐product pyrophosphate

Km [2]: 445 ± 50 µM
Compound: O=C(O)/C=C/c1ccccc1 [1a, cinnamic acid]

Compound: NcCAR (Neurospora crassa OR74A)
Km [3]: 173 ± 22 µM | kcat [3]: 7.46 s⁻¹

— PMC5129534, “Selective Enzymatic Transformation to Aldehydes in vivo by Fungal Carboxylate Reductase from Neurospora crassa” (Advanced Synthesis & Catalysis, 2016)
